Experimental data taken from patent US6392055B1, “Synthesis and biological evaluation of analogs of the antimitotic marine natural product curacin A” (The University of Pittsburgh, priority 2000, dated 2002).
Like-named read-outs stand apart in the source and are kept apart here.

How the values were obtained:
MDA-MB231 cells = assay: Growth inhibition of breast carcinoma cells (MTS); type: cell-based, human; conditions: Homo sapiens, MDA-MB-231, 48 h, read-out: GI50 MDA-MB231 (48 h)
[1] = molecular target: tubulin (colchicine site); assay: Inhibition of [3H]colchicine binding to tubulin; parameters: species or system bovine; conditions: 5 μM [3H]colchicine, 1 μM tubulin
Protocol: Assays to determine whether 15mix-17mix inhibited binding of [^3H]colchicine to tubulin at both 30° C. and 37° C. were performed. This was accomplished using methods described previously. Kang, G.-J.; Getahun, Z.; Muzaffar, A.; Brossi, A.; Hamel, E. J. Biol. Chem. 1990, 265, 10255; Verdier-Pinard, P.; Lai, J.-Y.; Yoo, H.-D.; Yu, J.; Marquez, B.; Nagle, D. G.; Nambu, M.; White, J. D.; Falck, J. R.; Gerwick, W. H.; Day, B. W.; Hamel, E. Mol. Pharmacol. 1998, 53, 62. Briefly, 5 μM [^3H]colchicine (2.3 TBq/mmol), drug (1, 5, 10, 50, or 250 μM), or vehicle (DMSO, 5% v/v) were incubated at 30° C. for 15 minutes or at 37° C. for 10 minutes with 1 μM tubulin in the presence of 1 M monosodium glutamate, 0.1 M glucose-1-phosphate, 1 mM MgCl2, 1 mM GTP, and 0.5 mg/mL bovine serum albumin. The solutions were filtered through two stacks of DEAE-cellulose filters and the radioactivity in the filtrate was determined by scintillation spectrometry. Each series of determinations included positive controls of 1, 5, and/or 50 μM curacin A.

[2] = test system: MCF-7 human breast carcinoma cells; assay: Mitotic index by immunofluorescence of phosphorylated core histone; type: cell-based; conditions: for concentration causing maximum mitotic block: 0.0075-15 μM
Protocol: Further verification of the biological activity of compounds 17a-e was obtained in living tumor cells by quantifying their effect on mitotic index, essentially, counting the number of cells in the mitotic phase of the cell cycle. Antimitotic compounds increase the mitotic index, which can be quantified immunohistochemically using an antibody to a mitosis-specific phosphorylated core histone protein. MCF-7 human breast carcinoma cells were treated with increasing concentrations of compounds 17a-e (7.8-1000 nM), curacin A (3.1-400 nM), and vinblastine (0.08-10 nM) for 14-16 hours. The morphology of the cellular nuclei and the mircrotubule cytoskeleton, as well as the phosphorylation of a core histone protein, were visualized using a multiparameter immunofluorescence approach. […] Compound 17b induced cell rounding and the generalized loss of structured microtubules in the same cells. The mitotic index in drug-treated cells was measured. To assess the relative activity of compounds 17a-e and two known microtubule disrupting drugs, vinblastine and curacin A, the minimum effective concentration of each drug was measured.
Phosphorylation of histone H3 occurs during mitosis and is linked to chromosome condensation. Thus, antimitotic agents cause an accumulation of cells containing […]. Wei, Y.; Mizzen, C. A.; Cook, R. G.; Gorovsky, M. A.; Allis, C. D. Proc. Natl Acad. Sci. USA 1998, 95, 7480. MCF-7 human breast carcinoma cells were treated with increasing concentrations (0.0075-15 μM) of 17mix and 17a-e for 14 hours and mitotic index quantities automatically. […] Vinblastine, a classic mitotic inhibitor, was tested over a range of 0.49 nM to 0.1 μM and caused a maximum accumulation of adherent cells in mitosis of 26%.

[3] = test system: isolated bovine brain tubulin; assay: Inhibition of GTP/glutamate-induced tubulin polymerization (turbidimetric, 30° C.); type: biochemical; conditions: read-out: 50% Tubulin Polymerization Inhibition Concentration (TPI) IC50; 30° C., 10 μM tubulin
PC-3 cells = assay: Growth inhibition of prostate carcinoma cells (MTS); type: cell-based, human; conditions: Homo sapiens, PC-3, 48 h, read-out: GI50 PC-3 (48 h)
2008 cells = assay: Growth inhibition of ovarian carcinoma cells (MTS); type: cell-based, human; conditions: Homo sapiens, Ovarian carcinoma cell, 48 h, read-out: GI50 2008 (48 h)
[4] = incubation at 30° C. for 15 minutes, read-out: 50% Colchicine Binding Inhibitory Concentration (CBI), 30° C.
[5] = incubation at 37° C. for 10 minutes, read-out: 50% Colchicine Binding Inhibitory Concentration (CBI), 37° C.

COc1cc(/C=C\CC/C=C/C=C(\C)CCC(O)c2cc3ccccc3o2)cc(OC)c1OC (stereo not shown) [Compound 17e, (4E,6E,10Z)-11-(3,4,5-Trimethoxyphenyl)-4-methyl-1-benzofuran-2-ylundeca-4,6,10-trien-1-ol]
GI50 (MDA-MB231 cells): 120 ± 70 nM | IC50 [1, 4]: 9000 ± 4000 nM | IC50 [1, 5]: 28000 ± 8000 nM | concentration causing maximum mitotic block ([2]; 14 hours): sub-micromolar | IC50 [3]: 1600 nM | GI50 (PC-3 cells): 310 ± 200 nM | GI50 (2008 cells): 270 ± 50 nM

COc1cc(/C=C\CC/C=C/C=C(\C)CCC(O)c2cccs2)cc(OC)c1OC (stereo not shown) [Compound 17c, (4E,6E,10Z)-11-(3,4,5-Trimethoxyphenyl)-4-methyl-1-thiophen-2-ylundeca-4,6,10-trien-1-ol]
GI50 (MDA-MB231 cells): 280 ± 40 nM | IC50 [1, 4]: 39000 ± 10000 nM | IC50 [1, 5]: 9000 ± 3000 nM | concentration causing maximum mitotic block ([2]; 14 hours): sub-micromolar | IC50 [3]: 1200 nM | GI50 (PC-3 cells): 380 ± 80 nM | GI50 (2008 cells): 280 ± 20 nM

COc1cc(/C=C\CC/C=C/C=C(\C)CCC(O)c2cc3ccccc3s2)cc(OC)c1OC (stereo not shown) [Compound 17b, (4E,6E,10Z)-11-(3,4,5-Trimethoxyphenyl)-4-methyl-1-benzothiophen-2ylundeca-4,6,10-trien-1ol]
GI50 (MDA-MB231 cells): 230 ± 60 nM | IC50 [1, 4]: 9000 ± 7000 nM | IC50 [1, 5]: 19000 ± 2000 nM | fraction of cells exhibiting condensed chromatin and increased core histone phosphorylation ([2]; 14-16 hours): large increase | IC50 [3]: 1400 nM | GI50 (PC-3 cells): 620 ± 50 nM | GI50 (2008 cells): 360 ± 1 nM

CC[C@]1(O)C[C@@H]2CN(CCc3c([nH]c4ccccc34)[C@@](C(=O)OC)(c3cc4c(cc3OC)N(C)[C@H]3[C@@](O)(C(=O)OC)[C@H](OC(C)=O)[C@]5(CC)C=CCN6CC[C@]43[C@@H]65)C2)C1 [Vinblastine, vinblastine, reference compound]
maximum accumulation of adherent cells in mitosis ([2]; tested over 0.49 nM to 0.1 μM, 14 hours): 26%
